biological target: HPK1 (Homo sapiens (Human), UniProt Q92918); test: HPK1 Inhibition Assay (ADP-Glo kinase assay); format: biochemical; settings: ATP 10 μM
Outline: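 ADP-Glo luminescence read-out after 1 h room-temperature kinase reaction with 10 μM ATP and 0.1 μg/ml MBP. Recombinant human HPK1 at 7.5 ng/μl; buffer 40 mM Tris pH 7.5, 20 mM MgCl2. Compounds serially diluted 5-fold over 10 points from 10 mM DMSO stock.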

HPK1, sequence (Q92918 1-346 limits assumed): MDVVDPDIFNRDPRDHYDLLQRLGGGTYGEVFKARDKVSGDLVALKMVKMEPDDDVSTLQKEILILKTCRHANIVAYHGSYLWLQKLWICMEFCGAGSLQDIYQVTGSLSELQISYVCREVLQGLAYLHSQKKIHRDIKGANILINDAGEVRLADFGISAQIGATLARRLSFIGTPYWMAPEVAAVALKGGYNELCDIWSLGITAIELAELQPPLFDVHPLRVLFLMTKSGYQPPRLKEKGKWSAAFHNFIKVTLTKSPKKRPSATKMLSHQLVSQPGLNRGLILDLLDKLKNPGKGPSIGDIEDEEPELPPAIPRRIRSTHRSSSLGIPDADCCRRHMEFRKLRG

SMILES | IC50 [nM]
CC(C)c1nc2c(N3CC4C[C@]4(N)C3)c(NC(=O)c3ccc(=O)n(-c4c(F)cccc4F)n3)ccc2n1C (stereo partly drawn) [Example 112, N-(4-((1R)-1-amino-3-azabicyclo[3.1.0]hexan-3-yl)-2-isopropyl-1-methyl-1H-benzo[d]imidazol-5-yl)-1-(2,6-difluorophenyl)-6-oxo-1,6-dihydropyridazine-3-carboxamide] | < 100
Cn1c(C(F)F)nc2c(N3CC[C@@H](N)C3)c(NC(=O)c3ccc(=O)n(-c4c(F)cccc4F)n3)ccc21 [Example 159, (R)-N-(4-(3-aminopyrrolidin-1-yl)-2-(difluoromethyl)-1-methyl-1H-benzo[d]imidazol-5-yl)-1-(2,6-difluorophenyl)-6-oxo-1,6-dihydropyridazine-3-carboxamide] | < 100
CC(C)c1nc2c(N3CC[C@@H](N)C3)c(NC(=O)c3nn(-c4c(F)cccc4F)c(=O)cc3Cl)ccc2n1C [Example 120, (R)-N-(4-(3-aminopyrrolidin-1-yl)-2-isopropyl-1-methyl-1H-benzo[d]imidazol-5-yl)-4-chloro-1-(2,6-difluorophenyl)-6-oxo-1,6-dihydropyridazine-3-carboxamide] | < 100
C[C@@H]1CN(c2c(NC(=O)c3ccc(=O)n(-c4c(F)cccc4F)n3)ccc3c2cnn3[C@H]2CCCOC2)C[C@@H]1N [Example 253, N-(4-((3R,4R)-3-amino-4-methylpyrrolidin-1-yl)-1-((S)-tetrahydro-2H-pyran-3-yl)-1H-indazol-5-yl)-1-(2,6-difluorophenyl)-6-oxo-1,6-dihydropyridazine-3-carboxamide] | < 100
CC(C)(C)n1cc2c(N3C[C@@H](N)C4(CC4)C3)c(NC(=O)c3ccc(=O)n(-c4c(F)cccc4F)n3)ccc2n1 [Example 242, (S)-N-(4-(7-amino-5-azaspiro[2.4]heptan-5-yl)-2-(tert-butyl)-2H-indazol-5-yl)-1-(2,6-difluorophenyl)-6-oxo-1,6-dihydropyridazine-3-carboxamide] | < 100
Cc1nc2c(N3C[C@H](N)C4(CC4)C3)c(NC(=O)c3ccc(=O)n(-c4c(F)cccc4F)n3)ccc2n1C1CCOCC1 [Example 151, 1-(2,6-difluorophenyl)-N-(4-[(7R)-7-amino-5-azaspiro[2.4]heptan-5-yl]-2-methyl-1-(3,4,5,6-tetrahydro-2H-pyran-4-yl)benzo[d]imidazol-5-yl)-6-oxo-1,2-diazine-3-carboxamide] | < 100
Cc1nc2c(N(C)CC3CNC3)c(NC(=O)c3ccc(=O)n(-c4c(F)cccc4F)n3)ccc2n1C [Example 86, N-(4-((azetidin-3-ylmethyl)(methyl)amino)-1,2-dimethyl-1H-benzo[d]imidazol-5-yl)-1-(2,6-difluorophenyl)-6-oxo-1,6-dihydropyridazine-3-carboxamide] | 100 to 1000
Cc1nc2c(N3CCNC4(CC4)C3)c(NC(=O)c3ccc(=O)n(-c4c(F)cccc4F)n3)ccc2n1C [Example 81, 1-(2,6-difluorophenyl)-N-(1,2-dimethyl-4-(4,7-diazaspiro[2.5]octan-7-yl)-1H-benzo[d]imidazol-5-yl)-6-oxo-1,6-dihydropyridazine-3-carboxamide] | < 100
CC(C)c1nc2c(N3CC[C@@H](N)C3)c(NC(=O)c3ccnn(-c4c(F)cccc4F)c3=O)ccc2n1C [Example 163, (R)-N-(4-(3-aminopyrrolidin-1-yl)-2-isopropyl-1-methyl-1H-benzo[d]imidazol-5-yl)-2-(2,6-difluorophenyl)-3-oxo-2,3-dihydropyridazine-4-carboxamide] | < 100
NC1CCN(c2c(NC(=O)c3ccc(=O)n(-c4c(F)cccc4F)n3)ccc3c2cnn3[C@@H]2CCOC2)CC1 [Example 265, (R)-N-(4-(4-aminopiperidin-1-yl)-1-(tetrahydrofuran-3-yl)-1H-indazol-5-yl)-1-(2,6-difluorophenyl)-6-oxo-1,6-dihydropyridazine-3-carboxamide] | < 100
C[C@@H]1CN(c2c(NC(=O)c3ccc(=O)n(-c4c(F)cccc4F)n3)ccc3nn(C4CCN(C)CC4)cc23)C[C@@H]1N [Example 308, N-(4-((3R,4R)-3-amino-4-methylpyrrolidin-1-yl)-2-(1-methylpiperidin-4-yl)-2H-indazol-5-yl)-1-(2,6-difluorophenyl)-6-oxo-1,6-dihydropyridazine-3-carboxamide] | < 100
[2H]C([2H])([2H])C(n1ncc2c(N3C[C@H](N)C(C)(C)C3)c(NC(=O)c3ccc(=O)n(-c4c(F)cccc4F)n3)ccc21)C([2H])([2H])[2H] [Example 279, (R)-N-(4-(4-amino-3,3-dimethylpyrrolidin-1-yl)-1-(propan-2-yl-1,1,1,3,3,3-d6)-1H-indazol-5-yl)-1-(2,6-difluorophenyl)-6-oxo-1,6-dihydropyridazine-3-carboxamide] | < 100
COc1cccc(F)c1-n1cccc(C(=O)Nc2cc(F)c3c(cnn3C)c2N2C[C@H]3C[C@@H]2CN3)c1=O [Example 53, N-(4-((1R,4R)-2,5-diazabicyclo[2.2.1]heptan-2-yl)-7-fluoro-1-methyl-1H-indazol-5-yl)-1-(2-fluoro-6-methoxyphenyl)-2-oxo-1,2-dihydropyridine-3-carboxamide] | 100 to 1000
[2H]C([2H])([2H])C([2H])(n1ncc2c(N3C[C@@H](C)[C@@H](N)C3)c(NC(=O)c3ccc(=O)n(-c4c(F)cccc4F)n3)ccc21)C([2H])([2H])[2H] [Example 275, N-(4-((3R,4R)-3-amino-4-methylpyrrolidin-1-yl)-1-(propan-2-yl-d7)-1H-indazol-5-yl)-1-(2,6-difluorophenyl)-6-oxo-1,6-dihydropyridazine-3-carboxamide] | < 100
CC(C)c1nc2c(N3CC[C@@H](O)C3)c(NC(=O)c3ccc(=O)n(-c4c(F)cccc4F)n3)ccc2n1C [Example 117, (R)-1-(2,6-difluorophenyl)-N-(4-(3-hydroxypyrrolidin-1-yl)-2-isopropyl-1-methyl-1H-benzo[d]imidazol-5-yl)-6-oxo-1,6-dihydropyridazine-3-carboxamide] | < 100
Cc1nn(C(C)C)c2ccc(NC(=O)c3ccc(=O)n(-c4c(F)cccc4F)n3)c(N3CC[C@@H](N)C3)c12 [Example 195, (R)-N-(4-(3-aminopyrrolidin-1-yl)-1-isopropyl-3-methyl-1H-indazol-5-yl)-1-(2,6-difluorophenyl)-6-oxo-1,6-dihydropyridazine-3-carboxamide] | < 100
C[C@H]1CN(c2c(NC(=O)c3ccc(=O)n(-c4c(F)cccc4F)n3)ccc3nn([C@H]4CCOC4)cc23)C[C@@H]1N [Example 327, N-(4-((3R,4S)-3-amino-4-methylpyrrolidin-1-yl)-2-((S)-tetrahydrofuran-3-yl)-2H-indazol-5-yl)-1-(2,6-difluorophenyl)-6-oxo-1,6-dihydropyridazine-3-carboxamide] | < 100

Further lines, results first:

IC50 [nM] | SMILES
< 100 | Cn1c(C2CC2)nc2c(N3CC[C@@H](N)C3)c(NC(=O)c3ccc(=O)n(-c4c(F)cccc4F)n3)ccc21 [Example 160, (R)-N-(4-(3-aminopyrrolidin-1-yl)-2-cyclopropyl-1-methyl-1H-benzo[d]imidazol-5-yl)-1-(2,6-difluorophenyl)-6-oxo-1,6-dihydropyridazine-3-carboxamide]
< 100 | CC(C)c1nc2c(N3CC[C@@H](NCCO)C3)c(NC(=O)c3ccc(=O)n(-c4c(F)cccc4F)n3)ccc2n1C [Example 130, (R)-1-(2,6-difluorophenyl)-N-(4-(3-((2-hydroxyethyl)amino)pyrrolidin-1-yl)-2-isopropyl-1-methyl-1H-benzo[d]imidazol-5-yl)-6-oxo-1,6-dihydropyridazine-3-carboxamide]
< 100 | C[C@@H]1CN(c2c(NC(=O)c3ccc(=O)n(-c4c(F)cccc4F)n3)ccc3nn(C(C)(C)C)cc23)C[C@@H]1N [Example 234, N-[4-[(3R,4R)-3-amino-4-methyl-pyrrolidin-1-yl]-2-tert-butyl-indazol-5-yl]-1-(2,6-difluorophenyl)-6-oxo-pyridazine-3-carboxamide]
< 100 | N#Cc1ccncc1-c1ccc(NC(=O)c2ccc(=O)n(-c3c(F)cccc3F)n2)c(N2CC[C@@](N)(CO)C2)c1 (single isomer, unassigned) [Example 355]
< 100 | CC1(C)CN(c2c(NC(=O)c3ccc(=O)n(-c4c(F)cccc4F)n3)ccc3nn([C@@H]4CCOC4)cc23)C[C@H]1N [Example 323, N-(4-((S)-4-amino-3,3-dimethylpyrrolidin-1-yl)-2-((R)-tetrahydrofuran-3-yl)-2H-indazol-5-yl)-1-(2,6-difluorophenyl)-6-oxo-1,6-dihydropyridazine-3-carboxamide]
< 100 | N[C@@H]1CCCN(c2c(NC(=O)c3ccc(=O)n(-c4c(F)cccc4F)n3)ccc3c2cnn3[C@H]2CCOC2)C1 [Example 263, N-(4-((R)-3-aminopiperidin-1-yl)-1-((S)-tetrahydrofuran-3-yl)-1H-indazol-5-yl)-1-(2,6-difluorophenyl)-6-oxo-1,6-dihydropyridazine-3-carboxamide]
< 100 | CC1(C)CN(c2c(NC(=O)c3ccc(=O)n(-c4c(F)cccc4F)n3)ccc3nn([C@H]4CCOC4)cc23)C[C@@H]1N [Example 324, N-(4-((R)-4-amino-3,3-dimethylpyrrolidin-1-yl)-2-((S)-tetrahydrofuran-3-yl)-2H-indazol-5-yl)-1-(2,6-difluorophenyl)-6-oxo-1,6-dihydropyridazine-3-carboxamide]
< 100 | CC[C@@H]1CN(c2c(NC(=O)c3ccc(=O)n(-c4c(F)cccc4F)n3)ccc3c2cnn3C(C)C)C[C@@H]1N (single isomer, unassigned) [Example 196]
< 100 | CC(C)n1cc2c(N3CC[C@@H](CN)C3)c(NC(=O)c3ccc(=O)n(-c4c(F)cccc4F)n3)cc(F)c2n1 [Example 221, (S)-N-(4-(3-(aminomethyl)pyrrolidin-1-yl)-7-fluoro-2-isopropyl-2H-indazol-5-yl)-1-(2,6-difluorophenyl)-6-oxo-1,6-dihydropyridazine-3-carboxamide]
